From publication PMC11747885, “Potent inhibitors of the human RNA ligase Rlig1 highlights its role in RNA integrity maintenance under oxidative cellular stress” (Chemical Science, 2025)
pIC50: −log10 of the molar value. “And” between values parts separate entries of the source, which are not always exact repeats. Equal entries are not always repeated. “Also recorded” adds a separate entry of the source. Where two headings read alike, the source gives them in different places. Values belong to the compound of their own block, whether it stands above or below them. Non-standard residues stand in square brackets, D forms with d. Residues, ends and D or L forms follow the SMILES beside them. *: point of attachment. Sta = CC(C)C[C@H](N)[C@@H](O)CC(=O)O; Isovaleryl = CC(C)CC(=O)*

What was measured:
[1] = ultrasonic/warming, ref MedChemExpress, cited from earlier work
Rlig1-AMP [2] = target: T1, Rlig1-AMP (Homo sapiens, UniProt Q8N999); assay: FRET-based high-throughput screening of inhibitors for Rlig1-AMP; assay type: biochemical; details: HTS hits; for Raw data [w Enyzm]: with enzyme; for Raw data [w/o Enzym]: without enzyme
T1 construct: made in house; host or cells: E. coli BL21 (DE3), pET15b-Rlig1
T1 sequence (Q8N999 whole entry): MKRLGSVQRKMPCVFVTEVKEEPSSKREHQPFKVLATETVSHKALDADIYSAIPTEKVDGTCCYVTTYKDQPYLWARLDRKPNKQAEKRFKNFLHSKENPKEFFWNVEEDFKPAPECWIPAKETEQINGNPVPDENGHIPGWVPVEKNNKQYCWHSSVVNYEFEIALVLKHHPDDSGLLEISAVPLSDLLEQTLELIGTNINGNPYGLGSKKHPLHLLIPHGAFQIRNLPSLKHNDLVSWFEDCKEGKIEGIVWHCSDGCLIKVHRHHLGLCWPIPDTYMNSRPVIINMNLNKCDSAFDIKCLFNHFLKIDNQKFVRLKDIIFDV

acid protease = system: acid protease; design: method as in MedChemExpress; details: ref MedChemExpress, cited from earlier work
pepsin = system: pepsin; design: method as in MedChemExpress; details: ref MedChemExpress, cited from earlier work
proctase = target: proctase; design: method as in MedChemExpress; details: ref MedChemExpress, cited from earlier work
Rlig1-AMP [3] = target: T1, Rlig1-AMP; assay: Radioactive RNA ligation assay (hit validation, 10 µM test and IC50 determination); assay type: biochemical; details: for pIC50: n = 3; for percentage inhibition (dose response curve for IC50): replicates I-III
HEK293 cells = assay: Light-microscopy of inhibitor- and menadione-treated HEK293 cells; assay type: cell-based, human; details: 30 µM compound 24 h, then menadione 5 h
[4] = target: T2, human DNA ligase 1 (hLig1) (Homo sapiens, UniProt P18858); assay: DNA ligation assay with various hLig1 concentration at constant inhibitor concentration; assay type: biochemical; details: 10 µM compound, 30 min 37 °C, three replicates
T2 construct: made in house; host or cells: E. coli Rosetta BL21 (DE3), pET28a-hLig1
T2 sequence (P18858 whole entry): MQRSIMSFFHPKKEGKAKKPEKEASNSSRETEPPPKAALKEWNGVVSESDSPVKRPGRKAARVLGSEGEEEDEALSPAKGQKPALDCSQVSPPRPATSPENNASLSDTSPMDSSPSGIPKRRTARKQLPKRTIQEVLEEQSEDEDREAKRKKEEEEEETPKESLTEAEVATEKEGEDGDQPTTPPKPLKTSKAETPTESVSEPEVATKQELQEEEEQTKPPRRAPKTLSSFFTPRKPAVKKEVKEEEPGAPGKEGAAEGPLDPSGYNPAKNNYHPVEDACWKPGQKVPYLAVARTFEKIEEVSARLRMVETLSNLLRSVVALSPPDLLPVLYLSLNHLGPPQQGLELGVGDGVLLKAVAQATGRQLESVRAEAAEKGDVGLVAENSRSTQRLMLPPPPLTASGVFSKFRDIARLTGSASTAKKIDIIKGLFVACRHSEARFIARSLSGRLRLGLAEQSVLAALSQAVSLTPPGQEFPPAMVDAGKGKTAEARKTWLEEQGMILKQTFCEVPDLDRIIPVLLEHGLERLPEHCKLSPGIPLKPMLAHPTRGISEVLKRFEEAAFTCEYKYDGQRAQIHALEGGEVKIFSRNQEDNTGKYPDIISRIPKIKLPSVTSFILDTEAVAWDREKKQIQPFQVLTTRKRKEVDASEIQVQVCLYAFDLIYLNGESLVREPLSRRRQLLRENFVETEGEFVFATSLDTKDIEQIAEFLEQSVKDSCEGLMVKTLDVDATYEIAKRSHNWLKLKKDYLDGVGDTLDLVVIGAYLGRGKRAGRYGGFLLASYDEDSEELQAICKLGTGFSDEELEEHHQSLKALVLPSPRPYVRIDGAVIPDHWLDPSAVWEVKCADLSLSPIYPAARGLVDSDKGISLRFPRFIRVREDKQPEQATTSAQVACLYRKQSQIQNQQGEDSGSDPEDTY

protein kinase C (PKC) = target: protein kinase C (PKC); design: method as in MedChemExpress; details: PKC activity; ref MedChemExpress; cited from earlier work
[5] = ref MedChemExpress, cited from earlier work
[6] = system: SHSY5Y neuroblastoma cells; design: method as in MedChemExpress; details: ref MedChemExpress, cited from earlier work
[7] = DMSO; ref MedChemExpress; cited from earlier work
[8] = difference of raw data w/o and w enzyme
[9] = log(inhibitor) vs. response, variable slope (four parameters)
[10] = difference of raw data without and with enzyme

1-D Distance (Rlig1-AMP [2]; [8]): 1754 | Raw data [w Enyzm] (Rlig1-AMP [2]): 8928 | Raw data [w/o Enzym] (Rlig1-AMP [2]): 10682
Compound: CC(C)CC(=O)N[C@H](C(=O)N[C@H](C(=O)N[C@@H](CC(C)C)[C@@H](O)CC(=O)N[C@@H](C)C(=O)N[C@@H](CC(C)C)[C@@H](O)CC(=O)O)C(C)C)C(C)C [Pepstatin] (Isovaleryl-VV[Sta]A[Sta]-OH)
solubility, DMSO ([1]; DMSO): 125 mg/mL and 182.24 mM | pIC50 (acid protease; substrate casein, read-out: IC50, casein-acid protease): 6.28 | pIC50 (acid protease; substrate hemoglobin, read-out: IC50, hemoglobin-acid protease): 6.59 | pIC50 (pepsin; substrate casein, read-out: IC50, casein-pepsin): 6.82 | pIC50 (pepsin; substrate hemoglobin, read-out: IC50, hemoglobin-pepsin): 8.35 | pIC50 (proctase; substrate casein, read-out: IC50, casein-proctase): 6.54 | pIC50 (proctase; substrate hemoglobin, read-out: IC50, hemoglobin-proctase): 8.21

Compound: Nc1nccc(Nc2ccc(NC(=O)c3ccc(Nc4ccnc5ccccc45)cc3)cc2)n1 [Compound 26]
inhibition of Rlig1-AMP ligation (urea-PAGE) (Rlig1-AMP [3]; 10 μM compound, 500 nM Rlig1-AMP, 20 min 37 °C): Ligation was inhibited; also recorded: fully inhibited | HillSlope (best-fit value) (Rlig1-AMP [3]; four-parameter fit): 3.34 | Span (best-fit value) (Rlig1-AMP [3]; four-parameter fit): 95.37 | pIC50 (Rlig1-AMP [3]; four-parameter fit, read-out: IC50 (best-fit value)): 5.35 | percentage inhibition (dose response curve for IC50) (Rlig1-AMP [3]; log Compound [µM] 0.273001): 7.036 and 5.771 and 6.366 | percentage inhibition (dose response curve for IC50) (Rlig1-AMP [3]; log Compound [µM] 0.574031): 19.5464 and 52.3001 and 38.2038 | percentage inhibition (dose response curve for IC50) (Rlig1-AMP [3]; log Compound [µM] 0.875061): 94.6767 and 96.3427 and 56.3237 | percentage inhibition (dose response curve for IC50) (Rlig1-AMP [3]; log Compound [µM] 1.17609): 97.6992 and 100 and 95.9858 | percentage inhibition (dose response curve for IC50) (Rlig1-AMP [3]; log Compound [µM] 1.47712): 89.2369 and 100 (2×) | percentage inhibition (dose response curve for IC50) (Rlig1-AMP [3]; log Compound [µM] -0.0280287): 3.692 and 2.642 and 2.052 | percentage inhibition (dose response curve for IC50) (Rlig1-AMP [3]; log Compound [µM] -0.329059): 0 and 3.294 and 5.142 | percentage inhibition (dose response curve for IC50) (Rlig1-AMP [3]; log Compound [µM] -0.630089): 0 and 3.877 and 4.72 | LogIC50 (best-fit value) (Rlig1-AMP [3]; log of µM, four-parameter fit): 0.6524 | Bottom (best-fit value) (Rlig1-AMP [3]; [9]): 2.425 | Top (best-fit value) (Rlig1-AMP [3]; [9]): 97.8 | pIC50 (Rlig1-AMP [3]; radioactive ligation assay, 500 nM Rlig1-AMP, 20 min 37 °C, read-out: IC50): 5.35 | cell morphology (HEK293 cells): poor adherence and cell shrinkage | DNA product formation ([4]; hlig1 0.0315 µM): 43.039% and 22.9913% and 34.3002% | DNA product formation ([4]; hlig1 0.0625 µM): 60.9211% and 39.0213% and 52.249% | DNA product formation ([4]; hlig1 0.5 µM): 79.5392% and 84.6219% and 85.9221%

Compound: O=C1c2c(O)ccc(O)c2C(=O)c2c(NCCNCCO)ccc(NCCNCCO)c21 [Mitoxantrone]
1-D Distance (Rlig1-AMP [2]; [10]): 308 | Raw data [w Enyzm] (Rlig1-AMP [2]): 3553 | Raw data [w/o Enzym] (Rlig1-AMP [2]): 3245 | pIC50 (protein kinase C (PKC)): 5.07 | solubility ([5]; DMSO): 62.5 mg/mL and 140.61 mM | solubility ([5]; H2O): 100 mg/mL and 224.98 mM

1-D Distance (Rlig1-AMP [2]; [10]): 1659 | Raw data [w Enyzm] (Rlig1-AMP [2]): 6875 | Raw data [w/o Enzym] (Rlig1-AMP [2]): 8534
Compound: Cc1cnc(NCCCN(C)C)c2c1[nH]c1ccc3cc(O)ccc3c12 [Intoplicine]
solubility ([5]; DMSO): 80 mg/mL and 229.59 mM

Compound: Heparin (Lithium salt)
solubility, H2O ([1]; H2O): H2O : 100 mg/mL (Need ultrasonic) | 1-D Distance (Rlig1-AMP [2]; [8]): 1112 | 1-D Distance.npi (Rlig1-AMP [2]; normalised value of 1-D Distance): 83.0264 | Raw data [w Enyzm] (Rlig1-AMP [2]): 12003 | Raw data [w/o Enzym] (Rlig1-AMP [2]): 13115

1-D Distance (Rlig1-AMP [2]; [8]): 1474 | 1-D Distance.npi (Rlig1-AMP [2]; normalized value (npi)): 75.4488 | Raw data [w Enyzm] (Rlig1-AMP [2]): 8858 | Raw data [w/o Enzym] (Rlig1-AMP [2]): 10332
Compound: COc1nc(-c2cc(C)c(N[C@@H](C)c3ccc(F)cc3)nn2)ccc1-n1cnc(C)c1 [BPN-15606]
pIC50 ([6]; read-out: IC50, production of Aβ40): 7.77 | pIC50 ([6]; read-out: IC50, production of Aβ42): 8.15 | solubility [7]: 100 mg/mL and 238.97 mM
